Measurements: PubChem BioAssay AID256 (DTP/NCI, 2004)
“And” between values parts separate entries of the source, which are not always exact repeats. Identical values can stand only once. Inconclusive results and toxic doses are left out. Residues, ends and D or L forms follow the SMILES beside them. *: point of attachment. Trt = c1ccc(C(c2ccccc2)(c2ccccc2)*)cc1; Cbz = O=C(OCc1ccccc1)*

Tested on: CD2F1 mice, L1210 leukemia ip, survival T/C
Assay: NCI In Vivo Anticancer Drug Screen. Data for tumor model L1210 Leukemia (intraperitoneal) in CD2F1 (CDF1) mice
Conditions: higher = longer survival
Summary of the method: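 Mice carrying a transplanted tumor received test compound or vehicle alone. The value is the measurement in the treated group divided by that in the vehicle-treated control group.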

[1] = endpoint: mean survival time, dose: 100.0 mg/kg/injection, schedule: Q01DX009 (ip), vehicle: saline with Tween-80
[2] = endpoint: mean survival time, dose: 200.0 mg/kg/injection, schedule: Q01DX009 (ip), vehicle: saline with Tween-80
[3] = endpoint: mean survival time, dose: 400.0 mg/kg/injection, schedule: Q01DX009 (ip), vehicle: saline with Tween-80

O=C1OC2(c3ccc(Cl)cc3Oc3cc(Cl)ccc32)c2ccccc21
T/C (endpoint: mean survival time, dose: 100.0 mg/kg/injection, schedule: Q04DX002 (ip), vehicle: Klucel (hydroxypropylcellulose) (HPC)): 101 % of control
T/C (endpoint: mean survival time, dose: 200.0 mg/kg/injection, schedule: Q04DX002 (ip), vehicle: Klucel (hydroxypropylcellulose) (HPC)): 97 % of control
T/C (endpoint: mean survival time, dose: 400.0 mg/kg/injection, schedule: Q04DX002 (ip), vehicle: Klucel (hydroxypropylcellulose) (HPC)): 89 % of control

CC(CC(=O)O)(C(=O)O)S(=O)O (stereo not drawn)
T/C (endpoint: mean survival time, dose: 100.0 mg/kg/injection, schedule: Q04DX002 (ip), vehicle: other): 97 % of control
T/C (endpoint: mean survival time, dose: 200.0 mg/kg/injection, schedule: Q04DX002 (ip), vehicle: other): 100 % of control
T/C (endpoint: mean survival time, dose: 400.0 mg/kg/injection, schedule: Q04DX002 (ip), vehicle: other): 100 % of control

CC12CCC3C4CCC(=O)C=C4CCC3C1CCC2O (stereo not drawn)
T/C (endpoint: mean survival time, dose: 50.0 mg/kg/injection, schedule: Q01DX009 (ip), vehicle: Klucel (hydroxypropylcellulose) (HPC)): 101 % of control
T/C (endpoint: mean survival time, dose: 100.0 mg/kg/injection, schedule: Q01DX009 (ip), vehicle: Klucel (hydroxypropylcellulose) (HPC)): 96 % of control
T/C (endpoint: mean survival time, dose: 200.0 mg/kg/injection, schedule: Q01DX009 (ip), vehicle: Klucel (hydroxypropylcellulose) (HPC)): 101 % of control

CN(C)CCCNCc1c[nH]c(=O)[nH]c1=O
T/C (endpoint: mean survival time, dose: 100.0 mg/kg/injection, schedule: Q01DX009 (ip), vehicle: saline): 90 % of control
T/C (endpoint: mean survival time, dose: 100.0 mg/kg/injection, schedule: Q04DX003 (ip), vehicle: saline): 102 % of control
T/C (endpoint: mean survival time, dose: 200.0 mg/kg/injection, schedule: Q01DX009 (ip), vehicle: saline): 102 % of control
T/C (endpoint: mean survival time, dose: 200.0 mg/kg/injection, schedule: Q04DX003 (ip), vehicle: saline): 100 % of control
T/C (endpoint: mean survival time, dose: 400.0 mg/kg/injection, schedule: Q01DX009 (ip), vehicle: saline): 104 % of control
T/C (endpoint: mean survival time, dose: 400.0 mg/kg/injection, schedule: Q04DX003 (ip), vehicle: saline): 100 % of control

CC(c1ccc2ccccc2c1)C1CCCCC1C(=O)O (stereo not drawn)
T/C [1]: 102 % of control
T/C [2]: 100 % of control
T/C [3]: 97 % of control

CC1CCOC(C(C)C)O1 (stereo not drawn)
T/C (endpoint: mean survival time, dose: 50.0 mg/kg/injection, schedule: Q04DX002 (ip), vehicle: saline): 96 % of control
T/C (endpoint: mean survival time, dose: 100.0 mg/kg/injection, schedule: Q04DX002 (ip), vehicle: saline): 96 % of control
T/C (endpoint: mean survival time, dose: 200.0 mg/kg/injection, schedule: Q04DX002 (ip), vehicle: saline): 92 % of control

O=[N+]([O-])c1ccccc1C[P+](c1ccccc1)(c1ccccc1)c1ccccc1
T/C (endpoint: mean survival time, dose: 25.0 mg/kg/injection, schedule: Q04DX003 (ip), vehicle: saline with Tween-80): 98 % of control
T/C (endpoint: mean survival time, dose: 50.0 mg/kg/injection, schedule: Q04DX003 (ip), vehicle: saline with Tween-80): 114 % of control

Nc1nc2c(ncn2-c2ccc3ccccc3c2)c(=O)[nH]1
T/C (endpoint: mean survival time, dose: 100.0 mg/kg/injection, schedule: Q01DX001 (ip), vehicle: saline with Tween-80): 91 % of control
T/C (endpoint: mean survival time, dose: 200.0 mg/kg/injection, schedule: Q01DX001 (ip), vehicle: saline with Tween-80): 88 % of control
T/C (endpoint: mean survival time, dose: 400.0 mg/kg/injection, schedule: Q01DX001 (ip), vehicle: saline with Tween-80): 95 % of control

CCOP(=O)(CC(=O)O)c1ccccc1 (stereo not drawn)
T/C (endpoint: mean survival time, dose: 25.0 mg/kg/injection, schedule: Q04DX002 (ip), vehicle: saline with Tween-80): 96 % of control
T/C (endpoint: mean survival time, dose: 50.0 mg/kg/injection, schedule: Q04DX002 (ip), vehicle: saline with Tween-80): 100 % of control
T/C (endpoint: mean survival time, dose: 100.0 mg/kg/injection, schedule: Q04DX002 (ip), vehicle: saline with Tween-80): 92 % of control

Cc1cc2c3ccccc3nc(C(F)(F)F)n2n1
T/C (endpoint: mean survival time, dose: 100.0 mg/kg/injection, schedule: Q04DX003 (ip), vehicle: saline sonified): 96 % of control
T/C (endpoint: mean survival time, dose: 200.0 mg/kg/injection, schedule: Q04DX003 (ip), vehicle: saline sonified): 100 % of control
T/C (endpoint: mean survival time, dose: 400.0 mg/kg/injection, schedule: Q04DX003 (ip), vehicle: saline sonified): 100 % of control

Cc1ccc2c(c1)Sc1ccc3ccccc3c1N2
T/C [1]: 95 % of control
T/C (endpoint: mean survival time, dose: 100.0 mg/kg/injection, schedule: Q04DX003 (ip), vehicle: Klucel (hydroxypropylcellulose) (HPC)): 96 % of control
T/C [2]: 97 % of control
T/C (endpoint: mean survival time, dose: 200.0 mg/kg/injection, schedule: Q04DX003 (ip), vehicle: Klucel (hydroxypropylcellulose) (HPC)): 95 % of control
T/C [3]: 97 % of control
T/C (endpoint: mean survival time, dose: 400.0 mg/kg/injection, schedule: Q04DX003 (ip), vehicle: Klucel (hydroxypropylcellulose) (HPC)): 98 % of control

COC(=O)C(CSC(c1ccccc1)(c1ccccc1)c1ccccc1)NC(=O)C(CC(N)=O)NC(=O)OCc1ccccc1 (stereo not drawn) (Cbz-Asn-Cys(Trt)-OMe; configuration not given here)
T/C (endpoint: median survival time, dose: 12.5 mg/kg/injection, schedule: Q01DX009 (ip), vehicle: distilled water + Tween-80): 101 % of control
T/C (endpoint: median survival time, dose: 25.0 mg/kg/injection, schedule: Q01DX009 (ip), vehicle: distilled water + Tween-80): 108 % of control
T/C (endpoint: median survival time, dose: 50.0 mg/kg/injection, schedule: Q01DX009 (ip), vehicle: distilled water + Tween-80): 113 % of control and 107 % of control
T/C (endpoint: median survival time, dose: 100.0 mg/kg/injection, schedule: Q01DX009 (ip), vehicle: distilled water + Tween-80): 114 % of control
T/C (endpoint: median survival time, dose: 200.0 mg/kg/injection, schedule: Q01DX009 (ip), vehicle: distilled water + Tween-80): 162 % of control

OC1C=CC(O)C1 (stereo not drawn)
T/C (endpoint: mean survival time, dose: 75.0 mg/kg/injection, schedule: Q01DX001 (ip), vehicle: saline): 97 % of control
T/C (endpoint: mean survival time, dose: 150.0 mg/kg/injection, schedule: Q01DX001 (ip), vehicle: saline): 101 % of control

Cc1cccc[n+]1CC(=O)c1ccc(-c2ccc(C(=O)C[n+]3ccccc3C)cc2)cc1
T/C (endpoint: mean survival time, dose: 0.15 mg/kg/injection, schedule: Q04DX003 (ip), vehicle: Klucel (hydroxypropylcellulose) (HPC)): 94 % of control
T/C (endpoint: mean survival time, dose: 0.3 mg/kg/injection, schedule: Q04DX003 (ip), vehicle: Klucel (hydroxypropylcellulose) (HPC)): 95 % of control
T/C (endpoint: mean survival time, dose: 0.6 mg/kg/injection, schedule: Q04DX003 (ip), vehicle: Klucel (hydroxypropylcellulose) (HPC)): 97 % of control
